The supplement of paper PMC5321775
± gives the standard deviation of the averaged measurements or the uncertainty stated by the source.

Tests used:
[1] = system: Caenorhabditis briggsae HK104; experiment: mean adult lifespan of treated cohort (days); higher = longer lifespan; conditions: exposure: chronic from day 1 of adulthood, single dose per compound (concentration not stated in sheet)
Procedure: (§1)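 Caenorhabditis lifespan assay (CITP). Synchronised hermaphrodites were moved on the first day of adulthood onto 35 mm NGM plates with live E. coli OP50-1 and 51 uM FUdR, with the compound spread on the plate. Worms were kept at 20 C and scored for survival.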

[2] = system: Caenorhabditis briggsae AF16; experiment: as above; conditions: exposure: chronic from day 1 of adulthood, single dose per compound (concentration not stated in sheet)
Procedure: as §1

[3] = system: Caenorhabditis elegans N2; experiment: as above; conditions: exposure: chronic from day 1 of adulthood, single dose per compound (concentration not stated in sheet)
Procedure: as §1

[4] = system: Caenorhabditis briggsae JU1348; experiment: as above; conditions: exposure: chronic from day 1 of adulthood, single dose per compound (concentration not stated in sheet)
Procedure: as §1

[5] = system: Caenorhabditis elegans MY16; experiment: as above; conditions: exposure: chronic from day 1 of adulthood, single dose per compound (concentration not stated in sheet)
Procedure: as §1

[6] = system: Caenorhabditis elegans JU775; experiment: as above; conditions: exposure: chronic from day 1 of adulthood, single dose per compound (concentration not stated in sheet)
Procedure: as §1

[7] = system: Caenorhabditis briggsae HK104; experiment: mean adult lifespan of treated plate (days); higher = longer lifespan; conditions: exposure: chronic from day 1 of adulthood
Procedure: (§2)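 Dose-response lifespan assays in three C. briggsae strains (AF16, HK104, JU1348), run per plate (35-40 animals) on NGM with live OP50-1 and 51 uM FUdR at 20 C. Compound was added to the plate surface and worms were exposed from the first day of adulthood.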

[8] = system: Caenorhabditis briggsae AF16; experiment: as above; conditions: exposure: chronic from day 1 of adulthood
Procedure: as §2

[9] = system: Caenorhabditis briggsae JU1348; experiment: as above; conditions: exposure: chronic from day 1 of adulthood
Procedure: as §2

[10] = system: Caenorhabditis briggsae HK104; experiment: Kaplan-Meier median lifespan of treated cohort (days); higher = longer lifespan; conditions: exposure: chronic from day 1 of adulthood, single dose per compound (concentration not stated in sheet)
Procedure: as §1

[11] = system: Caenorhabditis briggsae AF16; experiment: as above; conditions: exposure: chronic from day 1 of adulthood, single dose per compound (concentration not stated in sheet)
Procedure: as §1

[12] = system: Caenorhabditis elegans N2; experiment: as above; conditions: exposure: chronic from day 1 of adulthood, single dose per compound (concentration not stated in sheet)
Procedure: as §1

[13] = system: Caenorhabditis briggsae JU1348; experiment: as above; conditions: exposure: chronic from day 1 of adulthood, single dose per compound (concentration not stated in sheet)
Procedure: as §1

[14] = system: Caenorhabditis elegans MY16; experiment: as above; conditions: exposure: chronic from day 1 of adulthood, single dose per compound (concentration not stated in sheet)
Procedure: as §1

[15] = system: Caenorhabditis elegans JU775; experiment: as above; conditions: exposure: chronic from day 1 of adulthood, single dose per compound (concentration not stated in sheet)
Procedure: as §1

[16] = system: Caenorhabditis briggsae HK104; experiment: Kaplan-Meier median lifespan of treated plate (days); higher = longer lifespan; conditions: exposure: chronic from day 1 of adulthood
Procedure: as §2

[17] = system: Caenorhabditis briggsae AF16; experiment: as above; conditions: exposure: chronic from day 1 of adulthood
Procedure: as §2

[18] = system: Caenorhabditis briggsae JU1348; experiment: as above; conditions: exposure: chronic from day 1 of adulthood
Procedure: as §2

Cc1ccc2c(c1)sc(-c1ccc(N(C)C)cc1)[n+]2C [Thioflavin T]
mean adult lifespan of treated cohort [1]: 39.5 ± 1
mean adult lifespan of treated cohort [2]: 31.3 ± 1.2
mean adult lifespan of treated cohort [3]: 20.2 ± 0.93
mean adult lifespan of treated cohort [4]: 27.6 ± 0.89
mean adult lifespan of treated cohort [5]: 26.7 ± 0.74
mean adult lifespan of treated cohort [6]: 25.5 ± 1
mean adult lifespan of treated plate ([7]; 5.3 µM): 33.5 ± 1.7
mean adult lifespan of treated plate ([7]; 26.5 µM): 30.8 ± 3.1
mean adult lifespan of treated plate ([7]; 106 µM): 5.61 ± 0.26
mean adult lifespan of treated plate ([7]; 530 µM): 5.71 ± 0.35
mean adult lifespan of treated plate ([8]; 5.3 µM): 28.1 ± 1.5
mean adult lifespan of treated plate ([8]; 26.5 µM): 17 ± 1
mean adult lifespan of treated plate ([8]; 106 µM): 5.48 ± 0.12
mean adult lifespan of treated plate ([8]; 530 µM): 5.75 ± 0.26
mean adult lifespan of treated plate ([9]; 0.5 µM): 24.1 ± 1.1
mean adult lifespan of treated plate ([9]; 5 µM): 24.3 ± 1.2
mean adult lifespan of treated plate ([9]; 5.3 µM): 19.49 ± 0.17
mean adult lifespan of treated plate ([9]; 25 µM): 25.9 ± 1.1
mean adult lifespan of treated plate ([9]; 26.5 µM): 28.3 ± 1.2
mean adult lifespan of treated plate ([9]; 100 µM): 21.5 ± 1.7
mean adult lifespan of treated plate ([9]; 106 µM): 5.01 ± 0.12
mean adult lifespan of treated plate ([9]; 530 µM): 4.33 ± 0.092
Kaplan-Meier median lifespan [10]: 41.4 ± 3.5
Kaplan-Meier median lifespan [11]: 31.7 ± 5.8
Kaplan-Meier median lifespan [12]: 21.4 ± 5
Kaplan-Meier median lifespan [13]: 28.1 ± 4.4
Kaplan-Meier median lifespan [14]: 27.2 ± 3.1
Kaplan-Meier median lifespan [15]: 27.7 ± 2.4
Kaplan-Meier median lifespan ([16]; 5.3 µM): 33 ± 2.8
Kaplan-Meier median lifespan ([16]; 26.5 µM): 35
Kaplan-Meier median lifespan ([16]; 106 µM): 6 ± 1.4
Kaplan-Meier median lifespan ([16]; 530 µM): 5.5 ± 2.1
Kaplan-Meier median lifespan ([17]; 5.3 µM): 28
Kaplan-Meier median lifespan ([17]; 26.5 µM): 24
Kaplan-Meier median lifespan ([17]; 106 µM): 5.67 ± 1.1
Kaplan-Meier median lifespan ([17]; 530 µM): 5.67 ± 1.1
Kaplan-Meier median lifespan ([18]; 0.5 µM): 24 ± 3.1
Kaplan-Meier median lifespan ([18]; 5 µM): 23.6 ± 2.9
Kaplan-Meier median lifespan ([18]; 25 µM): 26.2 ± 3.4
Kaplan-Meier median lifespan ([18]; 26.5 µM): 33 ± 2.8
Kaplan-Meier median lifespan ([18]; 100 µM): 22.4 ± 7
Kaplan-Meier median lifespan ([18]; 106 µM): 4.67 ± 0.58
Kaplan-Meier median lifespan ([18]; 530 µM): 4

O=C(O)CCC(=O)C(=O)O [alpha-ketoglutaric acid]
mean adult lifespan of treated cohort [1]: 33.8 ± 0.71
mean adult lifespan of treated cohort [2]: 25.9 ± 0.89
mean adult lifespan of treated cohort [3]: 21.4 ± 0.45
mean adult lifespan of treated cohort [4]: 24.6 ± 0.77
mean adult lifespan of treated cohort [5]: 24.9 ± 0.53
mean adult lifespan of treated cohort [6]: 24.6 ± 0.58
mean adult lifespan of treated plate ([7]; 100 µM): 33.8 ± 1.2
mean adult lifespan of treated plate ([7]; 500 µM): 35.3 ± 1.6
mean adult lifespan of treated plate ([7]; 800 µM): 33.7 ± 1.4
mean adult lifespan of treated plate ([7]; 1000 µM): 36.7 ± 1.3
mean adult lifespan of treated plate ([7]; 4000 µM): 33 ± 1.4
mean adult lifespan of treated plate ([7]; 16000 µM): 23.6 ± 1.1
mean adult lifespan of treated plate ([7]; 40000 µM): 24.7 ± 1.1
mean adult lifespan of treated plate ([8]; 100 µM): 27 ± 1.5
mean adult lifespan of treated plate ([8]; 500 µM): 21.7 ± 1.1
mean adult lifespan of treated plate ([8]; 800 µM): 24.9 ± 0.84
mean adult lifespan of treated plate ([8]; 1000 µM): 27.5 ± 1.4
mean adult lifespan of treated plate ([8]; 4000 µM): 26.5 ± 1.3
mean adult lifespan of treated plate ([8]; 16000 µM): 20.2 ± 1.1
mean adult lifespan of treated plate ([8]; 40000 µM): 20.3 ± 1
mean adult lifespan of treated plate ([9]; 100 µM): 23.3 ± 1.4
mean adult lifespan of treated plate ([9]; 500 µM): 23.5 ± 1.1
mean adult lifespan of treated plate ([9]; 800 µM): 22.7 ± 1.1
mean adult lifespan of treated plate ([9]; 1000 µM): 25.5 ± 1.3
mean adult lifespan of treated plate ([9]; 4000 µM): 24.6 ± 1.9
mean adult lifespan of treated plate ([9]; 16000 µM): 14.7 ± 1.2
mean adult lifespan of treated plate ([9]; 40000 µM): 11.7 ± 0.54
Kaplan-Meier median lifespan [10]: 34.7 ± 2.5
Kaplan-Meier median lifespan [11]: 26.3 ± 1.7
Kaplan-Meier median lifespan [12]: 21.9 ± 1.6
Kaplan-Meier median lifespan [13]: 25.9 ± 2.3
Kaplan-Meier median lifespan [14]: 25.3 ± 1.4
Kaplan-Meier median lifespan [15]: 25.6 ± 1.7
Kaplan-Meier median lifespan ([16]; 100 µM): 36 ± 4.6
Kaplan-Meier median lifespan ([16]; 500 µM): 37.2 ± 4
Kaplan-Meier median lifespan ([16]; 800 µM): 36.3 ± 4.7
Kaplan-Meier median lifespan ([16]; 1000 µM): 37.2 ± 6.3
Kaplan-Meier median lifespan ([16]; 4000 µM): 35 ± 5
Kaplan-Meier median lifespan ([16]; 16000 µM): 23.8 ± 2.1
Kaplan-Meier median lifespan ([16]; 40000 µM): 25.8 ± 2.1
Kaplan-Meier median lifespan ([17]; 100 µM): 26.5 ± 1.7
Kaplan-Meier median lifespan ([17]; 500 µM): 25 ± 2.2
Kaplan-Meier median lifespan ([17]; 800 µM): 26
Kaplan-Meier median lifespan ([17]; 1000 µM): 28 ± 2.5
Kaplan-Meier median lifespan ([17]; 4000 µM): 25.9 ± 5.6
Kaplan-Meier median lifespan ([17]; 16000 µM): 19 ± 1.6
Kaplan-Meier median lifespan ([17]; 40000 µM): 18.5 ± 1.9
Kaplan-Meier median lifespan ([18]; 100 µM): 23.3 ± 2.5
Kaplan-Meier median lifespan ([18]; 500 µM): 25.3 ± 2.5
Kaplan-Meier median lifespan ([18]; 800 µM): 23 ± 4.2
Kaplan-Meier median lifespan ([18]; 1000 µM): 28 ± 3
Kaplan-Meier median lifespan ([18]; 4000 µM): 22.8 ± 5.2
Kaplan-Meier median lifespan ([18]; 16000 µM): 12.5 ± 1
Kaplan-Meier median lifespan ([18]; 40000 µM): 11 ± 1.1

O=C(O)CCCCC1CCSS1 (stereo not drawn) [alpha-lipoic acid]
mean adult lifespan of treated cohort [1]: 35.9 ± 0.96
mean adult lifespan of treated cohort [2]: 27.5 ± 0.76
mean adult lifespan of treated cohort [3]: 19.2 ± 0.4
mean adult lifespan of treated cohort [4]: 26.4 ± 0.83
mean adult lifespan of treated cohort [5]: 16.3 ± 0.61
mean adult lifespan of treated cohort [6]: 18.3 ± 0.61
Kaplan-Meier median lifespan [10]: 37.2 ± 1.3
Kaplan-Meier median lifespan [11]: 28.4 ± 3.2
Kaplan-Meier median lifespan [12]: 19.2 ± 1.5
Kaplan-Meier median lifespan [13]: 25.8 ± 1.5
Kaplan-Meier median lifespan [14]: 15.6 ± 2.1
Kaplan-Meier median lifespan [15]: 18.4 ± 4.2

CC(=O)Oc1ccccc1C(=O)O [aspirin]
mean adult lifespan of treated cohort [1]: 37.2 ± 1
mean adult lifespan of treated cohort [2]: 27 ± 0.81
mean adult lifespan of treated cohort [3]: 17.9 ± 0.3
mean adult lifespan of treated cohort [4]: 28 ± 1.1
mean adult lifespan of treated cohort [5]: 17 ± 0.49
mean adult lifespan of treated cohort [6]: 18.3 ± 0.55
Kaplan-Meier median lifespan [10]: 37.5 ± 1.9
Kaplan-Meier median lifespan [11]: 27.8 ± 3.7
Kaplan-Meier median lifespan [12]: 17.5 ± 1.1
Kaplan-Meier median lifespan [13]: 28.3 ± 4.4
Kaplan-Meier median lifespan [14]: 16.4 ± 1.4
Kaplan-Meier median lifespan [15]: 17.4 ± 4.3

COc1cc(/C=C/C(=O)CC(=O)/C=C/c2ccc(O)c(OC)c2)ccc1O [curcumin]
mean adult lifespan of treated cohort [1]: 30.5 ± 0.87
mean adult lifespan of treated cohort [2]: 21.9 ± 0.82
mean adult lifespan of treated cohort [3]: 17.1 ± 0.34
mean adult lifespan of treated cohort [4]: 21.3 ± 0.66
mean adult lifespan of treated cohort [5]: 15.6 ± 0.46
mean adult lifespan of treated cohort [6]: 19.5 ± 0.66
Kaplan-Meier median lifespan [10]: 30.7 ± 2.2
Kaplan-Meier median lifespan [11]: 23.2 ± 1.7
Kaplan-Meier median lifespan [12]: 17.7 ± 0.82
Kaplan-Meier median lifespan [13]: 21.2 ± 2.8
Kaplan-Meier median lifespan [14]: 15.3 ± 1.6
Kaplan-Meier median lifespan [15]: 19.3 ± 2

O=c1c(O)c(-c2ccc(O)c(O)c2)oc2cc(O)cc(O)c12 [quercetin]
mean adult lifespan of treated cohort [1]: 33 ± 0.87
mean adult lifespan of treated cohort [2]: 26.5 ± 0.79
mean adult lifespan of treated cohort [3]: 17.6 ± 0.32
mean adult lifespan of treated cohort [4]: 25.2 ± 0.76
mean adult lifespan of treated cohort [5]: 15.9 ± 0.49
mean adult lifespan of treated cohort [6]: 17.4 ± 0.69
Kaplan-Meier median lifespan [10]: 35.5 ± 1.7
Kaplan-Meier median lifespan [11]: 28 ± 2.2
Kaplan-Meier median lifespan [12]: 17.8 ± 0.96
Kaplan-Meier median lifespan [13]: 24.8 ± 2.5
Kaplan-Meier median lifespan [14]: 15 ± 1.8
Kaplan-Meier median lifespan [15]: 15.2 ± 2.1

CCCC(CCC)C(=O)O [valproic acid]
mean adult lifespan of treated cohort [1]: 32.9 ± 0.96
mean adult lifespan of treated cohort [2]: 21.8 ± 0.98
mean adult lifespan of treated cohort [3]: 17.6 ± 0.42
mean adult lifespan of treated cohort [4]: 21.9 ± 0.85
mean adult lifespan of treated cohort [5]: 14.7 ± 0.48
mean adult lifespan of treated cohort [6]: 18.2 ± 0.56
Kaplan-Meier median lifespan [10]: 35.3 ± 1.9
Kaplan-Meier median lifespan [11]: 22 ± 2.6
Kaplan-Meier median lifespan [12]: 17.6 ± 0.54
Kaplan-Meier median lifespan [13]: 21.9 ± 1.2
Kaplan-Meier median lifespan [14]: 14.6 ± 0.98
Kaplan-Meier median lifespan [15]: 17.4 ± 3.1
